# According to ChEMBL document CHEMBL1127939, “Non-peptide fibrinogen receptor antagonists. 3. design and discovery of a centrally constrained inhibitor” (Bioorg Med Chem Lett, 1994):
# The source made the active and inactive calls. The calls are words filed in the database; no cut-off is given here.
# Experiments:
# [1] = biological target: Integrin alpha-IIb/beta-3 (Homo sapiens) (UniProt P05106+P08514); assay: Inhibition of human umbilical vein endothelial cell (HUVEC) adhesion to fibrinogen at 300 uM (No inhibition); format: cell-based
# [2] = biological target: Integrin alpha-5/beta-1 (Homo sapiens) (UniProt P05556+P08648); assay: Inhibition of human umbilical vein endothelial cell (HUVEC) adhesion to fibronectin at 300 uM (No inhibition); format: cell-based
# [3] = system: Canis familiaris; assay: Ex vivo percent inhibition of platelet aggregation at oral dose of 2 mg/kg after 140 min; format: functional; conditions: Canis lupus familiaris
# [4] = system: HUVEC; assay: Inhibition of human umbilical vein endothelial cell (HUVEC) adhesion to vitronectin at 300 uM (No inhibition); format: cell-based
# [5] = system: Canis familiaris; assay: Ex vivo percent inhibition of platelet aggregation at oral dose of 4 mg/kg after 480 min; format: functional; conditions: Canis lupus familiaris, 8 h
smiles,measurement,setting,value
O=C(O)CCNC(=O)c1ccc2c(c1)C(=O)N(CCC1CCNCC1)C2,inhibition,[1],inactive
same,inhibition,[2],inactive
same,inhibition in vivo at 2 mg/kg,[3],65%
same,inhibition,[4],inactive
same,inhibition in vivo at 4 mg/kg,[5],90%
